In ChEMBL document CHEMBL2203203, “Structure-activity relationships of 2-arylamido-5,7-dihydro-4H-thieno[2,3-c]pyran-3-carboxamide derivatives as cannabinoid receptor agonists and their analgesic action” (Bioorg Med Chem Lett, 2012):

Key:
[1] = molecular target: T1, Cannabinoid receptor 2 (Homo sapiens, UniProt P34972); assay: Agonist activity at human CB2 receptor after 4 hrs by luciferase reporter gene assay relative to control; type: functional
[2] = organism: Homo sapiens; assay: Selectivity ratio of EC50 for human CB1 receptor to EC50 for human CB2 receptor
[3] = molecular target: T2, Cannabinoid receptor 1 (Homo sapiens, UniProt P21554); assay: Agonist activity at human CB1 receptor after 4 hrs by luciferase reporter gene assay; type: functional
T2 sequence (P21554 whole entry): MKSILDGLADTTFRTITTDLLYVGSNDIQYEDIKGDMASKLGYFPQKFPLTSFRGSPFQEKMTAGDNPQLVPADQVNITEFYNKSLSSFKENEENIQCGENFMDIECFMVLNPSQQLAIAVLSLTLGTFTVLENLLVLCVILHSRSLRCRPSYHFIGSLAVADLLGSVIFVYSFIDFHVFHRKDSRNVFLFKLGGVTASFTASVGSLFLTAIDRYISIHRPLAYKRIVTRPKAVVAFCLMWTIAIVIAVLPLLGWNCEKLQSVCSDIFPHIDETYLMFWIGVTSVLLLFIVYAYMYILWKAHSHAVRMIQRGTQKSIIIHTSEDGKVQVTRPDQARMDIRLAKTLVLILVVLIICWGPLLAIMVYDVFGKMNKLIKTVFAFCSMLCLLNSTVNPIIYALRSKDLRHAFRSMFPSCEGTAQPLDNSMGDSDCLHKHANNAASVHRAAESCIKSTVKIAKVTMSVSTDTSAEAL

[4] = molecular target: T1, Cannabinoid receptor 2; assay: Agonist activity at human CB2 receptor after 4 hrs by luciferase reporter gene assay; type: functional
[5] = molecular target: T2, Cannabinoid receptor 1; assay: Agonist activity at human CB1 receptor after 4 hrs by luciferase reporter gene assay relative to control; type: functional

T1 sequence (P34972 whole entry): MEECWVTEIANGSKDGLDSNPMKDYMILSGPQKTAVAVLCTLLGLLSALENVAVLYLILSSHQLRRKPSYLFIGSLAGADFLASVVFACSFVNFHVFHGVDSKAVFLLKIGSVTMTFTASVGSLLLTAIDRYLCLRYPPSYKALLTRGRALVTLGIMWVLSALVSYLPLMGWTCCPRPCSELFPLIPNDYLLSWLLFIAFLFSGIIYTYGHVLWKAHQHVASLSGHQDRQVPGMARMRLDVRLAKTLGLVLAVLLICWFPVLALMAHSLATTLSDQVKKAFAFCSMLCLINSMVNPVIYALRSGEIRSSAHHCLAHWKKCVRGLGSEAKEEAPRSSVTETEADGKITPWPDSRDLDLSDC

SMILES	Efficacy [1]	Ratio EC50 [2]	EC50 [3]	EC50 [4]	Efficacy [5]
O=C(CN1CCCC1)Nc1sc2c(c1C(=O)N1CCC(F)(F)CC1)CCCC2	87%	> 48	> 10000 nM	209 nM	–
COc1ccccc1C(=O)Nc1sc2c(c1C(=O)N1CCOCC1)CCOC2	–	–	> 10000 nM	> 10000 nM	–
O=C(Nc1sc2c(c1C(=O)NCC1CC1)CCOC2)c1ccccc1OC(F)(F)F	94%	15	519 nM	35 nM	88%
COCCNC(=O)c1c(NC(=O)c2ccccc2OC(F)(F)F)sc2c1CCC(F)(F)C2	96%	> 145	> 10000 nM	63 nM	–
O=C(Nc1sc2c(c1C(=O)N1CCOCC1)CCOC2)c1c(Cl)cccc1Cl	76%	7	4640 nM	695 nM	78%
CC(C)(C)CC(=O)Nc1sc2c(c1C(=O)N1CCC(F)(F)CC1)C(C)(C)CC2	96%	> 77	> 10000 nM	129 nM	–
O=C(CN1CCCCC1)Nc1sc2c(c1C(=O)N1CCC(F)(F)CC1)CCCC2	104%	126	3220 nM	26 nM	100%
COCC(C)(C)NC(=O)c1c(NC(=O)c2ccccc2C(F)(F)F)sc2c1CCOC2	93%	> 243	> 10000 nM	41 nM	–
CC1(C)CCc2sc(NC(=O)c3ccccc3Cl)c(C(=O)NCC3CC3)c21	116%	30	16 nM	0.55 nM	86%
O=C(Nc1sc2c(c1C(=O)N1CCOCC1)CCOC2)c1ccc(Cl)cc1	–	–	> 10000 nM	> 10000 nM	–
O=C(Nc1sc2c(c1C(=O)N1CC(F)(F)C1)CCC(F)(F)C2)c1ccccc1OC(F)(F)F	99%	8	139 nM	18 nM	93%
CC(C)(C)CC(=O)Nc1sc2c(c1C(=O)N1CCC(F)(F)CC1)CCCC2	82%	24	113 nM	4.7 nM	86%
COCCNC(=O)c1c(NC(=O)CN2CCCCC2)sc2c1CCCC2	98%	> 65	> 10000 nM	152 nM	–
Cc1ccccc1C(=O)Nc1sc2c(c1C(=O)N1CCOCC1)CCOC2	105%	12	7450 nM	646 nM	97%
COCCNC(=O)c1c(NC(=O)c2ccccc2Cl)sc2c1CCC2	52%	> 72	> 10000 nM	137 nM	–
COCCNC(=O)c1c(NC(=O)C2CCCC2)sc2c1CCOC2	84%	> 32	> 10000 nM	313 nM	–
CC(C)(C)C(=O)c1c(NC(=O)c2ccccc2OC(F)(F)F)sc2c1CCOC2	102%	> 11	> 10000 nM	939 nM	–
CC(C)c1ccccc1C(=O)Nc1sc2c(c1C(=O)N1CCOCC1)CCOC2	101%	42	1500 nM	35 nM	105%
O=C(Nc1sc2c(c1C(=O)N1CCC(F)(F)CC1)CCOC2)c1c(F)cccc1C(F)(F)F	97%	71	251 nM	3.6 nM	94%
COCCNC(=O)c1c(NC(=O)c2ccccc2Cl)sc2c1CCC(F)(F)C2	105%	21	958 nM	46 nM	97%
CC(C)(C)CC(=O)Nc1sc2c(c1C(=O)N1CC(F)(F)C1)CCCC2	99%	63	336 nM	5.4 nM	91%
COCCNC(=O)c1c(NC(=O)CC(C)(C)C)sc2c1CCOC2	101%	> 20	> 10000 nM	489 nM	–
O=C(Nc1sc2c(c1C(=O)N1CCOCC1)CCOC2)c1ccccc1-c1ccccc1	63%	–	> 10000 nM	7890 nM	–
O=C(Nc1sc2c(c1C(=O)N1CCOCC1)CCOC2)c1ccc(Cl)cc1Cl	108%	–	> 10000 nM	9350 nM	–
O=C(Nc1sc2c(c1C(=O)N1CCOCC1)CCOC2)c1cccc(OC(F)(F)F)c1	77%	> 10	> 10000 nM	749 nM	–
O=C(Nc1sc2c(c1C(=O)N1CCOCC1)CCOC2)c1ccccc1OC(F)(F)F	106%	> 90	> 10000 nM	103 nM	–
COCCNC(=O)c1c(NC(=O)c2ccccc2OC(F)(F)F)sc2c1CCOC2	100%	> 104	> 10000 nM	96 nM	–
